Legend:
[1] = test system: human HFs in organ-cultured full-thickness human scalp skin fragments; assay: Masson Fontana HF pigmentation in organ-cultured human scalp skin fragments; assay type: cell-based; conditions: at the doses tested; pooled data from 6 patients
Method: FIG. 15). Masson Fontana staining. […] Anagen & Catagen Hair Follices analysed. Pooled data from 6 patients. Mean+/−SEM, n=41-51 HFs evaluated, unpaired Student's t-test, ns
FIG. 17). Masson Fontana staining. […] Anagen HFs analysed. Pooled data from 6 patients. Mean+/−SEM, n=13-22 HFs evaluated, unpaired Student's t-test, ns
(§1) The following experiments were performed using human HFs in organ-cultured full-thickness human scalp skin fragments (4 mm, 6 female patients, 42-65 yrs).

[2] = test system: human HFs in organ-cultured full-thickness human scalp skin fragments; assay: MHCII staining (indirect immunofluorescence); assay type: cell-based
Method: FIG. 23). MHCII staining HS 14-061 (indirect immunofluorescence. Mouse anti human Ab HLA-DP-DQ-DR from DAKO). […] These MHCII+ cells are most likely macrophages.
as §1

[3] = test system: human HFs in organ-cultured full-thickness human scalp skin fragments; assay: Toluidine blue staining for perifollicular mast cells; assay type: cell-based
Method: FIG. 22). Toluidine blue staining for detecting Mast cells.
as §1

[4] = test system: human HFs in organ-cultured full-thickness human scalp skin fragments; assay: Hair follicle morphology (PAS staining); assay type: cell-based
Method: as §1

[5] = test system: human HFs in organ-cultured full-thickness human scalp skin fragments; assay: Hair cycle staging in organ-cultured human scalp skin fragments; assay type: cell-based; conditions: pooled data from six patients
Method: FIG. 13). Hair Cycle staging. Treatment of HFs with FOL-005 consistently induces anagen HFs within human scalp skin to enter catagen prematurely in all six patients tested (in each vertical bar, the top region corresponds to mid-catagen, the middle region to early catagen and the bottom region to anagen). Pooled data from 6 patients.
as §1

[6] = test system: intact human scalp skin; assay: Ki67/TUNEL double immunofluorescence in intact human scalp skin; assay type: cell-based; conditions: 60 nM; 3 days after treatment
Method: FIG. 7). Effect of FOL-005 on proliferation of Ki67 positive cells in intact human scalp skin. The concentration of FOL-005 was 60 nM, Mean+/−SEM, n=6-17 photos/punch was evaluated. “D3”=3 days after treatment.
To evaluate apoptotic and proliferating cells, double immunofluorescence was applied. Terminal dUTP nicked label-ling (ApopTag®Fluorescein in situ Apoptosis Detection Kit; Chemicon, Tenecula, Calif., USA) was used as a marker for apoptosis, and Ki67 immunoreactivity (DakoCytomation, Glostrup, Denmark) as indicator of cell proliferation, as previously described (Foitzik et. al., 2006).
Masson Fontana staining and immunohistochemistry was performed as described above.
The proliferation of Ki67 positive cells and apoptosis therein was determined as described in Whiting et al., 1999, J Investig Dermatol Symp Proc 4:282-284 (the relevant disclosures of which are incorporated by reference).
Cells were exposed to exemplary polypeptide FOL-005 at a dose of 60 nM.

[7] = test system: isolated human hair follicles; assay: Organ culture of isolated human hair follicles: hair cycle staging (anagen to catagen); assay type: cell-based
Source text: Anagen VI hair follicles (see Kloepper et al., 2010, the disclosures of which are incorporated herein by reference) were micro dissected from normal human scalp skin obtained with informed patient consent from three healthy adult females undergoing routine face-lift cosmetic surgery.
Isolated hair follicles were organ-cultured for 6-10 days in insulin- and hydrocortisone-supplemented William's E medium according to Philpott et al. (see Philpott et al., 1990; Bodó et al., 2009; Gáspár et al., 2010, the disclosures of which are incorporated herein by reference).
Treatment with the exemplary polypeptide FOL-005 was initiated immediately upon culturing the hair follicles, and lasted 7 to 10 days.
At the end of organ-culture, hair follicles were embedded and processed for longitudinal cryosections (Bodó et al., 2009; Gáspár et al., 2010).

[8] = test system: intact human scalp skin; assay: Masson-Fontana melanin pigmentation in intact human scalp skin; assay type: cell-based; conditions: injection or addition to the culture medium
Method: FIG. 8). Effect of FOL-005 on melatonin content in intact human scalp skin. The analysis was performed using Masson Fontana histochemistry and morphometric evaluation of each tissue section. Results presented as mean+/−SEM. One-way ANOVA and Bonferroni's post-hoc test, **p<0.01, *p<0.05. “D3”=3 days after treatment.
(§2) At different time points, skin specimens were embedded in O.C.T.™ Tissue-TEK (Sakura, Zoeterwoude, the Netherlands), frozen in liquid nitrogen, and 6 μm cryosections were cut. The sections were then post-fixed in acetone, air-dried and processed for haematoxylin and eosin (H&E; Sigma), Giemsa or Masson-Fontana histochemistry. Individual hair follicles were analysed with respect to their stage of cycling as described (Whiting et al. 1999), while hair follicle melanization was assessed by standard silver nitrate histochemistry (Masson-Fontana stain). Quantification of well-defined reference areas within the proximal hair matrix was performed using the Image J software (NIH).
Pigmentation changes in isolated follicles treated with exemplary polypeptide FOL-005 were assessed by Masson-Fontana histochemistry (see Whiting et al., 1999, J Investig Dermatol Symp Proc 4:282-284, the relevant disclosures of which are incorporated by reference).

[9] = test system: human male scalp skin grafted onto SCID mice; assay: Hair growth of human male scalp skin grafted onto SCID mice; assay type: in vivo; conditions: human scalp grafts on SCID/beige mice; FOL-005 300 nM per graft intradermally twice a week; Minoxidil 5% topically twice a day; three months
Source text: The effect of FOL-005 on hair growth of human male scalp skin grafted onto SCID mice was studied.
The aim of the study was to investigate the effect of FOL-005 on hair growth of human male scalp skin with tendency to androgenetic alopecia. In order to address this issue, fort-two female SCID/beige mice, six weeks of age, were involved in the study. Punch grafts, 3 mm^2, obtained from scalp skin of human volunteers with tendency to develop common alopecia, were transplanted onto SCID/beige mice (three grafts per mouse).
One week following transplantation, the mice were randomly divided into four treated groups as follows: • 1. Vehicle (10 mice) was injected intradermally twice a week and served as a negative control. • 2. Minoxidil (5%) (11 mice) was applied topically twice a day and served as appositive control. • 3. FOL-005 (300 nM per graft) (11 mice) was injected intradermally twice a week. • 4. Minoxidil 5%+FOL-005/Minoxidil (5%) (11 mice) was applied topically twice a day. FOL-005 (300 nM per graft) was injected intradermally twice a week. For the first 4 weeks the animals were treated with minoxidil only (in order to initiate hair growth) and then for the remaining period (2 months) FOL-005 treatment was added as injections, while minoxidil treatment was maintained as a topical application.
The number of hairs/graft was counted twice a week by two independent observers. […]

[10] = test system: human HFs in organ-cultured full-thickness human scalp skin fragments; assay: CD31 staining (indirect immunofluorescence); assay type: cell-based
Method: FIG. 24). CD31 staining HS14-061 (indirect immunoflourescence, mouse anti-human CD31 Ab from DAKO).
as §1

[11] = test system: human HFs in organ-cultured full-thickness human scalp skin fragments; assay: Emigration of dermal papilla cells in organ-cultured human scalp skin fragments; assay type: cell-based; conditions: anagen HFs only; pooled data from six patients
Method: FIG. 11). Effect of FOL-005 on emigration of Dermal Papilla (DP) cells. Only Anagen Hair follicles (HFs) analysed. Results based on pooled data from 6 patients. No significant change in the number of emigrating DP cells in HFs treated with FOL-005. Mean+/−SEM, n=18-22 HFs evaluated, Mann-Whitney test, ns
as §1

[12] = test system: intact human scalp skin; assay: Full-thickness human scalp skin organ culture: hair cycle staging; assay type: cell-based
Method: Full-thickness human scalp skin organ culture was performed for six days under serum-free conditions as described in (Lu et al., 2007, the disclosures of which are incorporated herein by reference).
In brief, scalp skin of female patients was obtained from routine face-lift surgery after informed consent. Human scalp skin was washed in William's E medium (Biochrom, Cambridge, UK) supplemented with 100 IU/ml penicillin G (Sigma, St Louis, Mo., USA), 10 μg/ml streptomycin (Sigma), 0.25 μg/ml amphotericin B (Gibco, Karlsruhe, Germany) for 5 min. The out-growing hair shafts were shaved off to the level of the epidermis; 2 mm biopsies of intact scalp skin were then punched out (parallel to the direction of hair growth, i.e. at an oblique angle), using an Acu-puncher (STIEFEL, Offenbach am Main, Germany).
The punches of human scalp tissue were carefully placed into William's E medium [supplemented with 100 IU/ml penicillin/10 μg/ml streptomycin, 10 μg/ml of insulin (Sigma), 10 ng/ml of hydrocortisone (Sigma) and 2 mmol/I of I-glutamine (Invitrogen, Paisley, UK)]. The skin fragments were left to float in the medium, with the epidermis up at air/liquid interface and the dermis/subcutis down. The cultures were maintained at 37° C. in a gassed incubator with 95% air and 5% CO2. The culture medium was changed every other day.
Immediately after commencement of culturing, the skin fragments were exposed to the exemplary polypeptide FOL-005 (at a dose of 15 nM to 3 μM), which lasted for the duration of culturing.
as §2

[13] = test system: human HFs in organ-cultured full-thickness human scalp skin fragments; assay: Ki67/TUNEL proliferation/apoptosis in organ-cultured human scalp skin fragments; assay type: cell-based; conditions: 15 nM; anagen and catagen HFs analysed
Method: FIG. 20). Ki67/TUNEL. […] Anagen & Catagen HFs analysed. Pooled data from 6 patients. Mean+/−SEM, n=48-59 HFs evaluated, Mann-Whitney test, *p<0.02. To reduce data distortion by outliers, Grubb's test was performed and the outlier value was eliminated from analysis.
as §1
Mean+/−SEM, n=48-59 HFs evaluated, Mann-Whitney test, *p<0.02. To reduce data distortion by outliers, Grubb's test was performed and the outlier value was eliminated from analysis.

[14] = test system: isolated human hair follicles; assay: Masson Fontana melanin pigmentation analysis in cultured isolated human hair follicles; assay type: cell-based; conditions: 60 nM
Method: FIG. 3). Effect of FOL-005 on melatonin content in cultured isolated human hair follicles. The analysis was performed using Masson Fontana histochemistry and morphometric evaluation of each tissue section. Results presented as mean+/−SEM, n=26-47 hair follicles evaluated in each group. One-way ANOVA and Bonferroni's post-hoc test, *p<0.05
Masson Fontana staining: Cryosections were air dried and fixed in ethanol-acetic acid. The sections were washed in tris-buffered saline (TBS) and distilled water several times. Cryosections were treated with ammoniacal silver solution (Fluka, Seelze, Germany) for 40 min at 56° C. in the dark. After washing in distilled water, the sections were treated with 5% aqueous sodium thiosulphate (Merck, Darmstadt, Germany) for 1 min. Next, the sections were washed in running tap water for 3 min and were counter-stained in 0.5% aqueous neutral red (Sigma). After washing in distilled water, sections were dehydrated and mounted in Eukitt (O. Kindler, Freiburg, Germany).

[15] = test system: human HFs in organ-cultured full-thickness human scalp skin fragments; assay: K15 staining (indirect immunofluorescence); assay type: cell-based
Method: FIG. 25). […] Preservation of HF stem cell pool and thus regenerative potential by FOL-005.
as §1
K15 staining was performed using HS14-087 (indirect immunoflourescence, mouse anti-human CK15 Ab from Chemikon).

VDTYDGDISVVYGLR (FOL-005, Peptide with similarity to sub-region of osteopontin) [exemplary polypeptide of the invention, osteopontin-derived 15-mer]
HF pigmentation [1]: No significant changes | number of immunohistologically-detectable perifollicular MHC class II+ cells [2]: No marked difference | number of histochemically-detectable perifollicular mast cells [3]: No marked difference | morphology of the BM (basal membrane) in HFs [4]: No observable difference | HF cycling (anagen to catagen) [5]: consistently induced anagen HFs within human scalp skin to enter catagen prematurely in all six patients tested | apoptosis (proportion of TUNEL positive cells) [6]: increased level of apoptosis | proliferation (proportion of Ki67 positive cells) [6]: strong tendency towards reduced proliferation | hair follicle regression (analysis of cryosections) [7]: promotes hair follicle regression | transition from anagen to catagen phase ([7]; 15 nM, 60 nM and 300 nM, treatment 7 to 10 days): induced a dose-dependent transition from anagen to catagen phase | melanin pigmentation [8]: significant reduction in pigmentation | number of hairs/graft [9]: 2.1±0.4 hairs/graft | number of CD31+ cells (endothelial cells) [10]: No marked differences | number of emigrating dermal papilla (DP) cells in HFs [11]: No significant effect | hair follicles in early catagen ([12]; addition to the culture medium): Almost all hair follicles are observed in early catagen | hair follicle regression (analysis of cryosections) ([12]; human skin pieces (Example B)): promotes hair follicle regression | catagen induction ([12]; injection into the scalp skin tissue): Catagen was also induced | transition from anagen to catagen phase ([12]; intact human scalp skin, 15 nM to 3 μM, six days culture): induced a rapid transition from anagen to catagen phase | number of apoptotic cells in HFs [13]: significant increase | number of proliferative cells in HFs [13]: No significant changes | melanin pigmentation [14]: significant reduction in pigmentation | number of K15+ cells [15]: No marked differences | human HF epithelial stem cells ([15]; K15 staining): not affected negatively

Nc1cc(N2CCCCC2)nc(N)[n+]1[O-] [Minoxidil, reference compound]
number of hairs/graft [9]: 8.1±0.1 hairs/graft
